Assay results as given in article PMC12040169 (PLOS Biology, 2025).

Assay: in vitro
Conditions: human, hela cells, % viability

Row | SMILES | viability at 28.5 h, 10 µM [%]
1 | CC(O)CNCc1ccccc1OCc1ccccc1F (centres unmarked) [CBK270278C] | 93.2
2 | CCCn1cnc2sc(C(=O)Nc3ccc(C)cc3C)c(C)c2c1=O [CBK071815] | 84.6
3 | OC1(Cn2cnc3ccccc32)CCN(Cc2cccc(F)c2)CC1 [CBK284663] | 94.9
4 | O=[N+]([O-])c1ccc(N2CCCCC2)s1 [CBK016566] | 104
5 | COc1ccc(/C=C(/NC(=O)c2cccc([N+](=O)[O-])c2)C(=O)O)cc1OC [CBK263362] | 97.1
6 | O=S(=O)(Nc1cccc(Cl)c1)c1ccc(OC(F)(F)F)cc1 [CBK044769] | 109
7 | O=[N+]([O-])c1ccc(S(=O)(=O)NCCc2nc3ccccc3[nH]2)cc1 [CBK261796] | 112
8 | O=C(Nc1ccccc1N1CCN(C(=O)c2ccc(Cl)cc2)CC1)c1ccc(-c2cc3ccccc3oc2=O)cc1 [CBK267280] | 92.3
9 | CC(C)(C)OC(=O)N1CCC(N2CCc3cc(-c4ccc(S(C)(=O)=O)cc4)ccc3C2)CC1 [CBK165796] | 82.7
10 | COc1cccc(-c2coc3cc4oc(=O)c(CC(=O)O)c(C)c4cc23)c1 [CBK269520] | 86.6
11 | Cc1cc(Br)c2c(c1)C(O)(N1CCCCC1C)C(=O)N2 (centres unmarked) [CBK265071] | 97.9
12 | O=C1CC2(CCN(C(=O)c3ccc4cc[nH]c4c3)CC2)Oc2ccc(CN3CCOCC3)cc21 [CBK169469] | 121
13 | CNC(=O)C1(Cc2ccc(-c3ccccc3)cc2)CCN(C(=O)c2cccc(OC)c2)CC1 [CBK285788] | 105
14 | COc1ccccc1N1C(=O)CC(SC(=N)N/N=C(\C)c2ccc(O)cc2)C1=O (centres unmarked) [CBK262766] | 100
15 | CN1CCN(C(=O)C2CCCN(S(=O)(=O)c3ccc(Br)cc3)C2)CC1 (centres unmarked) [CBK269006] | 107
16 | O=C(O)CSC1=CC(=O)N(c2ccc(Br)cc2)C1=O [CBK287263] | 81.5
17 | NNC(=O)c1cc2ccccc2cc1NS(=O)(=O)c1ccccc1 [CBK263261] | 84.4
18 | Cn1nnc2cc(NCC34CC3CN(C(=O)OC(C)(C)C)C4)ccc21 (centres unmarked) [CBK304758] | 92.7
19 | O=C(NC1CCCC1)c1ccc2c(c1)C(=O)N(CC1CCCO1)C2=O (centres unmarked) [CBK269777] | 103
20 | COc1ccc(C(=O)N2CCN(c3cnn(C)c(=O)c3Cl)CC2)cc1 [CBK305720] | 84.8
21 | CC(C)(N)CC(=O)N1CCC(Cn2cncn2)(C2CCCCC2)CC1 [CBK136822] | 89.4
22 | O=C(c1cccc(F)c1)N1CCCC(c2cc3cccnc3[nH]2)C1 (centres unmarked) [CBK284939] | 122

Row | SMILES | viability at 28.5 h, 10 µM [%]
23 | O=C(NCCc1ccccc1)Nc1cc2cccnc2c(Br)n1 [CBK063283] | 95.9
24 | Cn1c(N2CC[C@H](O)C2)nc2cc(C(=O)NCCn3cccn3)ccc21 [CBK307328] | 111
25 | CO[C@H]1CC[C@H](C(=O)NC(Cc2ccsc2)c2cccnc2)CC1 (some centres unmarked) [CBK285114] | 107
26 | c1ccc2oc(CN3Cc4nc[nH]c4C[C@H]3c3nc(-c4cnccn4)no3)cc2c1 [CBK288954] | 113
27 | O=C(NC(=S)Nc1ccc2c(c1)Cc1ccccc1-2)c1cc([N+](=O)[O-])ccc1N1CCOCC1 [CBK268726] | 104
28 | NS(=O)(=O)c1ccc(CNC(=O)c2cc(-c3cccnc3)nc3ccc(Br)cc23)cc1 [CBK267740] | 96.9
29 | CN(C)CC1CCCN(C(=O)c2cc3cc(F)ccc3n2C)C1 (centres unmarked) [CBK282122] | 85.6
30 | Cc1nc(N2CCCC2)ncc1-c1cc(O)nc(N2CCCCC2)n1 [CBK288226] | 92.3
31 | COc1ccc(-c2nnc(SCC(=O)c3ccc(F)cc3)n2C2CCCCC2C)cc1 (centres unmarked) [CBK297494] | 89.8
32 | c1ccc2c(c1)ccn2Cc1ccc(-c2nccnc2-c2nnn[nH]2)cc1 [CBK050821] | 107
33 | CN(Cc1ccccc1NCCn1c(=O)oc2ccccc21)C1CCCCC1 [CBK296678] | 78.1
34 | CC(=O)N1CCN(c2ccc(OCCO)cc2)CC1 [CBK001978] | 90.8
35 | CC(=O)c1c(-c2cccc3ccccc23)nc2n(CCN3CCCCC3)c3ccccc3n12 [CBK278243C] | 103
36 | Cc1cc(C)n(C(C)CNC(=O)c2cc(C3CC3)on2)n1 (centres unmarked) [CBK283243] | 103
37 | O=C(OCc1nc2cc3ccccc3cc2[nH]1)C1CCCCC1 [CBK018307] | 94
38 | O=C(O)CCC(=O)NCC1(c2ccccc2)CCCC1 [CBK286679] | 89.7
39 | O=C(O)CCc1ccc(-c2cn3ccnc3c(N3CCOCC3)n2)cc1 [CBK066166] | 93.6
40 | Cc1n[nH]c(O)c1C(c1cccc([N+](=O)[O-])c1)c1c(C)n[nH]c1O [CBK264753] | 97.8
41 | CN(C)c1ccc(C=C2CCCC3C2=NN(C(=O)CCC(=O)O)C3c2ccc(N(C)C)cc2)cc1 (centres unmarked) [CBK296065] | 86.8
42 | CCC(C(=O)N1CCC(C(=O)c2cccnc2)CC1)c1ccccc1 (centres unmarked) [CBK283525] | 91.1
43 | COc1cc(C(c2c[nH]c3ccccc23)c2c[nH]c3ccccc23)ccc1OCC(=O)O [CBK265717] | 97.8
44 | CN(C(=O)c1ccccc1C(=O)O)C1CC(C)(C)NC(C)(C)C1 [CBK287117] | 98.2

Row | SMILES | viability at 28.5 h, 10 µM [%]
45 | CCOC(=O)C1CN(C(=O)N(CCN)Cc2ccc(Cl)cc2)CC1c1ccccc1 (centres unmarked) [CBK001682C] | 97.8
46 | Cn1c(=O)ccn([C@@H]2O[C@H](CO)[C@H](O)C2O)c1=O (some centres unmarked) [CBK201281] | 104
47 | COC(=O)C1CCCCN1S(=O)(=O)c1cccc2cccnc12 (centres unmarked) [CBK051244] | 82.2
48 | O=c1c(Oc2ccccc2Br)c(C(F)(F)F)oc2c(CN3CCCC3)c(O)ccc12 [CBK217827] | 96
49 | Cc1nn(C)c(N2CCNCC2)c1NC(=O)C(C)c1ccccc1 (centres unmarked) [CBK045929T] | 108
50 | c1ccc(CCN2CCCN(c3ccnc(OCCN4CCOCC4)n3)CC2)cc1 [CBK083810] | 89.3
51 | CC(C(=O)N1CCC(O)(c2ccccn2)CC1)c1ccccc1 (centres unmarked) [CBK282396] | 102
52 | Cc1nccn1CCC(=O)NCCc1ccc(N(C)C)cc1 [CBK281954] | 82.6
53 | O=C(NC1(C(F)(F)F)NC(=O)N(CCc2ccccc2)C1=O)c1ccco1 (centres unmarked) [CBK267482] | 89.2
54 | O=C(O)c1ccc(N2C(=O)/C(=C/c3c[nH]c4ccccc34)SC2=S)cc1 [CBK263085] | 90.4
55 | Cc1c(C(=O)N2CCNCC2C)nnn1-c1ccc2ncccc2c1 (centres unmarked) [CBK304473] | 94.6
56 | COCCSc1ccccc1C(=O)Nc1ccc(S(N)(=O)=O)cc1 [CBK267530] | 83.2
57 | COc1ccc(N2C(=O)CC(N3CCN(c4ccc(C(=O)c5cccnc5)cc4)CC3)C2=O)cc1 (centres unmarked) [CBK268924] | 92.7
58 | O=C(O)c1cc(C=Cc2ccc(Cl)c([N+](=O)[O-])c2)nc2ccccc12 [CBK297495] | 104
59 | Nc1ncc(-c2ccc(Cl)cc2)c(C2CCCN(C(=O)Cc3c[nH]c4ccccc34)C2)n1 (centres unmarked) [CBK285574] | 113
60 | CC(C)(C)OC(=O)N1Cc2c(-c3noc(C4CC4)n3)ncn2-c2ccc(Cl)cc21 [CBK007792] | 90.2
61 | O=C(CCn1cnc2ccccc21)N1CCC(c2ccncc2)CC1 [CBK283522] | 102
62 | CN1CCC(N(C)C(=O)NCc2ccc(Cl)c(Cl)c2)C1 (centres unmarked) [CBK155996] | 92.4
63 | Cc1cccn2c(CN(C)C(C)C(N)=O)c(C(=O)N3CCOCC3)nc12 (centres unmarked) [CBK306592] | 105
64 | O=S(=O)(c1cc(Cl)sc1Cl)N1CCCCC1CO (centres unmarked) [CBK051422] | 87.2
65 | CC(=O)N[C@H]1CO[C@H]2[C@@H]1OC[C@@H]2n1nnnc1-c1ccccc1 [CBK289483] | 87.1
66 | CC(=O)NCc1cccc(-c2cc(C(=O)Nc3ccc4c(c3)OCCO4)cnc2O)c1 [CBK149871T] | 91.6

Row | SMILES | viability at 28.5 h, 10 µM [%]
67 | Brc1ccc(-c2nnco2)cc1 [CBK026512] | 84.3
68 | Cc1ccc(Oc2cc(-n3nc(C)c(C(N)=O)c3N)ncn2)cc1 [CBK099753] | 95.7
69 | CCOC(=O)c1cnc2ccc(F)cc2c1NCCN(C)C [CBK265751] | 91.7
70 | Nc1nonc1-c1nc2ccccc2[nH]1 [CBK062657] | 89.4
71 | Cc1nc(S(=O)(=O)N2CCC(C(=O)N3CCCC3)CC2)cn1C [CBK305786] | 88.3
72 | Nc1nnc(SCC(=O)c2ccc3ccccc3c2)s1 [CBK266120] | 97.7
73 | O=C(NCc1nnc(-c2cccs2)o1)c1cccc2ccccc12 [CBK284636] | 82.1
74 | N#CC(c1ccc(Br)cc1)n1ccnc1 (centres unmarked) [CBK009985] | 85.6
75 | O=C(CSc1ccc2nnc(-c3ccccc3)n2n1)NCc1ccco1 [CBK287514] | 95.6
76 | CC(C)CCNCc1ccc(-c2cn(CC(=O)NCc3ccc(C(F)(F)F)cc3)cn2)cc1 [CBK165976] | 91.7
77 | CC(C)NC(=O)Cn1ccc2ccnc(-c3cccs3)c21 [CBK284732] | 91.3
78 | CN1CCN(CC(=O)Nc2cc(C(F)(F)F)ccc2Cl)C(C)(C)C1 [CBK306363] | 85.8
79 | CCN(CC)CCCOC1(C)SC(NC2CCCCCC2)=NC1=O (centres unmarked) [CBK113510] | 86.5
80 | COC(=O)N1CCC(C(=O)NC(c2ccccc2)c2nc(OC)cc(OC)n2)CC1 (centres unmarked) [CBK059651] | 90.6
81 | Cc1ccc2[nH]c3c(c2c1)CCNC31CCN(C(=O)CC(C)CC(=O)O)CC1 (centres unmarked) [CBK047196] | 109
82 | Cc1nn(C(C)CC(=O)NCC2CCN(C(C)C)CC2)c(C)c1C (centres unmarked) [CBK282703] | 84.2
83 | Cn1ncc2c1CCCN(C(=O)CCc1ccccc1F)C2 [CBK285255] | 96.8
84 | Cc1onc(-c2ccccc2)c1C(=O)Nc1cccc(S(=O)(=O)N2CCOCC2)c1 [CBK268159] | 101
85 | Cc1ccccc1CNC(=O)c1ccc(C)c([N+](=O)[O-])c1 [CBK264010] | 110

Same assay, conditions: human, hela cells, % viability, bulk resorufin, single well

Row | SMILES | viability at 28.5 h, 10 µM [%]
86 | O=C1NC(=O)N(c2ccc(Br)cc2)C(=O)/C1=C/c1ccc(O)c(O)c1 [CBK278167] | 104
